What was measured:
D-263MG (Glioblastoma) = assay: combination Emax (second highest fraction inhibited in the dose matrix, 72 h); higher = more inhibition; extreme values may be limits of the assay
In short: (§1)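 After 24 hours at 37°C and 5% CO2 in 1536-well plates, cells in DMEM/F12 or RPMI plus 10% FBS received two-drug dose matrices for 72 hours. Viability came from CellTiter-Glo 2.0 luminescence and was scaled as inhibition, anchored at 0 by vehicle wells and at 1 by blank wells. Combination Emax is taken as the second-highest inhibition in the matrix, and Bliss excess as the observed combination effect less EA + EB − EA·EB, with EA and EB the single-agent effects.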

[1] = tested on: Ca9-22 (Head and Neck Carcinoma); assay: Bliss excess, mean over the matrix (fraction); higher = more synergy
In short: as §1

[2] = tested on: NUGC-3 (Gastric Carcinoma); assay: as above
In short: as §1

[3] = tested on: Hs-766T (Pancreatic Carcinoma); assay: as above
In short: as §1

[4] = tested on: Caov-4 (Ovarian Carcinoma); assay: as above
In short: as §1

[5] = tested on: HOP-62 (Lung Adenocarcinoma); assay: as above
In short: as §1

[6] = tested on: HSC-4 (Oral Cavity Carcinoma); assay: as above
In short: as §1

[7] = tested on: PANC-04-03 (Pancreatic Carcinoma); assay: as above
In short: as §1

YH-13 (Glioblastoma) = assay: as above
In short: as §1

[8] = tested on: KARPAS-299 (T-Cell Non-Hodgkin's Lymphoma); assay: as above
In short: as §1

[9] = tested on: OSC-20 (Oral Cavity Carcinoma); assay: as above
In short: as §1

[10] = tested on: KYSE-450 (Esophageal Squamous Cell Carcinoma); assay: as above
In short: as §1

[11] = tested on: NCI-H358 (Lung Adenocarcinoma); assay: as above
In short: as §1

ACHN (Kidney Carcinoma) = assay: as above
In short: as §1

[12] = tested on: LU-65 (Non-Small Cell Lung Carcinoma); assay: as above
In short: as §1

TK10 (Kidney Carcinoma) = assay: as above
In short: as §1

[13] = tested on: OE19 (Esophageal Adenocarcinoma); assay: as above
In short: as §1

TGW (Neuroblastoma) = assay: as above
In short: as §1

[14] = tested on: NEC8 (Other Solid Carcinomas); assay: as above
In short: as §1

[15] = tested on: TE-1 (Esophageal Squamous Cell Carcinoma); assay: as above
In short: as §1
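Wherever Bliss excess, mean over the matrix is given: after 72 h of two-drug dosing.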

SMILES | combination Emax (D-263MG (Glioblastoma)) | Bliss excess [1] | Bliss excess [2] | Bliss excess [3] | Bliss excess [4] | Bliss excess [5] | Bliss excess [6] | Bliss excess [7] | Bliss excess (YH-13 (Glioblastoma)) | Bliss excess [8] | Bliss excess [9] | Bliss excess [10] | Bliss excess [11] | Bliss excess (ACHN (Kidney Carcinoma)) | Bliss excess [12] | Bliss excess (TK10 (Kidney Carcinoma)) | Bliss excess [13] | Bliss excess (TGW (Neuroblastoma)) | Bliss excess [14] | Bliss excess [15]
CC(=O)c1c(C)c2cnc(Nc3ccc(N4CCNCC4)cn3)nc2n(C2CCCC2)c1=O [Palbociclib] + Cn1cnc2c(F)c(Nc3ccc(Br)cc3Cl)c(C(=O)NOCCO)cc21 [Selumetinib] (first compound max 10 µM, 7x7, partner max 10 µM) | 0.265 | 0.0539 | -0.0178 | -0.0221 | -0.0247 | -0.0079 | -0.0488 | -0.0213 | 0.0093 | 0.0661 | -0.0566 | 0.0539 | -0.0489 | 0.0146 | 0.0042 | 0.0072 | 0.0203 | 0.0125 | -0.0233 | 0.0048
C[C@@H]1COCCN1c1cc(C2([S@](C)(=N)=O)CC2)nc(-c2ccnc3[nH]ccc23)n1 [AZD6738] + O=C(c1cc(Cc2n[nH]c(=O)c3ccccc23)ccc1F)N1CCN(C(=O)C2CC2)CC1 [Olaparib] (first compound max 10 µM, 7x7, partner max 10 µM) | 0.981 | -0.042 | -0.0296 | -0.0039 | -0.125 | 0.0092 | -0.0172 | 0.0066 | 0.0254 | -0.0073 | 0.0171 | 0.0066 | -0.0276 | -0.0791 | 0.0026 | -0.0735 | -0.133 | -0.0469 | 0.0254 | -0.0461
CC1(C)CCC(CN2CCN(c3ccc(C(=O)NS(=O)(=O)c4ccc(NCC5CCOCC5)c([N+](=O)[O-])c4)c(Oc4cnc5[nH]ccc5c4)c3)CC2)=C(c2ccc(Cl)cc2)C1 [Venetoclax] + C=CCn1c(=O)c2cnc(Nc3ccc(N4CCN(C)CC4)cc3)nc2n1-c1cccc(C(C)(C)O)n1 [AZD1775] (first compound max 1 µM, partner max 1 µM) | 0.808 | 0.0384 | -0.0656 | -0.0049 | 0.0534 | -0.0635 | -0.0205 | -0.0597 | -0.0085 | 0.008 | -0.0522 | -0.0642 | 0.0042 | 0.0604 | 0.041 | -0.0444 | -0.0932 | -0.0261 | -0.0523 | -0.0667
CC1(C)CCC(CN2CCN(c3ccc(C(=O)NS(=O)(=O)c4ccc(NCC5CCOCC5)c([N+](=O)[O-])c4)c(Oc4cnc5[nH]ccc5c4)c3)CC2)=C(c2ccc(Cl)cc2)C1 [Venetoclax] + C[C@@H](Nc1cc(F)cc(F)c1)c1cc(C(=O)N(C)C)cc2c(=O)cc(N3CCOCC3)oc12 [AZD8186] (first compound max 1 µM, 7x7, partner max 3 µM) | 0.142 | -0.0104 | -0.0192 | -0.0487 | -0.0109 | -0.0412 | -0.0369 | -0.0374 | -0.0336 | -0.0074 | -0.0516 | -0.0457 | -0.0521 | -0.0208 | -0.0235 | -0.0887 | -0.0065 | 0.0136 | -0.0197 | 0.0042
CS(=O)(=O)CCNCc1ccc(-c2ccc3ncnc(Nc4ccc(OCc5cccc(F)c5)c(Cl)c4)c3c2)o1 [Lapatinib] + NC1(c2ccc(-c3nc4ccn5c(=O)[nH]nc5c4cc3-c3ccccc3)cc2)CCC1 [MK-2206] (first compound max 10 µM, 7x7, partner max 10 µM) | 0.492 | 0.005 | 0.0527 | -0.0629 | -0.05 |  | 0.0003 | 0.0116 | -0.0154 | 0.0874 |  | -0.022 | -0.0733 | 0.0221 | 0.0099 | 0.0616 |  | -0.0033 |  | 
Cc1c2c(nn1C)CSCc1cc(n(C)n1)CSc1cc(c3ccccc3c1)OCCCc1c(C(=O)O)n(C)c3c-2c(Cl)ccc13 [AZD5991] + C[C@@H]1COCCN1C2=NC(=NC(=C2)C3(CC3)[S@](=N)(=O)C)C4=C5C=CNC5=NC=C4 [AZD6738] (first compound max 1 µM, 7x7, partner max 10 µM) | 0.935 | 0.0573 | 0.0119 | 0.0201 | -0.0205 | 0.0213 | -0.0403 | 0.0027 | 0.0218 | 0.0002 | 0.0592 | 0.0407 | -0.0334 | -0.0008 | -0.0405 | -0.0599 |  | 0.0167 | 0.1 | 0.0125
Cc1c2c(nn1C)CSCc1cc(n(C)n1)CSc1cc(c3ccccc3c1)OCCCc1c(C(=O)O)n(C)c3c-2c(Cl)ccc13 [AZD5991] + C=CCn1c(=O)c2cnc(Nc3ccc(N4CCN(C)CC4)cc3)nc2n1-c1cccc(C(C)(C)O)n1 [AZD1775] (first compound max 1 µM, partner max 1 µM) | 0.758 | -0.032 | -0.0088 | 0.0172 | -0.0345 | -0.0288 | -0.0805 |  | -0.0275 | -0.0032 | -0.0115 | 0.025 | -0.0047 | -0.0085 | -0.118 | 0.0159 | -0.0082 | -0.0538 | -0.0089 | -0.0456
Cc1c2c(nn1C)CSCc1cc(n(C)n1)CSc1cc(c3ccccc3c1)OCCCc1c(C(=O)O)n(C)c3c-2c(Cl)ccc13 [AZD5991] + CN(C)CCCOc1ccc(-c2ccc3ncc4c(c3c2)n(C2CCOCC2)c(=O)n4C)cn1 [AZD0156] (first compound max 1 µM, 7x7, partner max 1 µM) | 0.711 | -0.0131 | 0.0167 | -0.0006 | -0.0035 |  | -0.0955 | 0.0116 | -0.0465 | 0.016 | 0.0236 | 0.0134 | 0.0096 | 0.0086 | -0.001 | -0.0089 | -0.0242 | -0.0079 | 0.0201 | -0.0702
Cc1c2c(nn1C)CSCc1cc(n(C)n1)CSc1cc(c3ccccc3c1)OCCCc1c(C(=O)O)n(C)c3c-2c(Cl)ccc13 [AZD5991] + CC1(C)CCC(CN2CCN(c3ccc(C(=O)NS(=O)(=O)c4ccc(NCC5CCOCC5)c([N+](=O)[O-])c4)c(Oc4cnc5[nH]ccc5c4)c3)CC2)=C(c2ccc(Cl)cc2)C1 [Venetoclax] (first compound max 1 µM, 7x7, partner max 1 µM) | 0.863 | -0.006 | -0.0125 | -0.132 | -0.0137 | -0.0574 | -0.0498 | -0.0381 | -0.0433 | 0.0445 | -0.0059 | -0.0061 | -0.0289 | 0.0156 | -0.0487 | -0.0581 | -0.0285 | 0.128 | 0.0396 | 
CCc1c2c(nc3ccc(O)cc13)-c1cc3c(c(=O)n1C2)COC(=O)[C@]3(O)CC [SN-38] + O=C(c1cc(Cc2n[nH]c(=O)c3ccccc23)ccc1F)N1CCN(C(=O)C2CC2)CC1 [Olaparib] (first compound max 0.3 µM, 7x7, partner max 10 µM) | 0.703 | 0.0176 |  | 0 | 0.0748 | 0.0562 |  | 0.0215 | 0.0927 | 0.0404 | -0.0034 | 0.0808 | 0.0029 | 0.0198 | 0.0282 | 0.011 | 0.0026 | 0.06 | 0.0473 | 
Cc1c2c(nn1C)CSCc1cc(n(C)n1)CSc1cc(c3ccccc3c1)OCCCc1c(C(=O)O)n(C)c3c-2c(Cl)ccc13 [AZD5991] + CCN(CCO)CCCOc1ccc2c(Nc3cc(CC(=O)Nc4cccc(F)c4)[nH]n3)ncnc2c1 [AZD2811] (first compound max 1 µM, 7x7, partner max 1 µM) | 0.994 | 0.0626 | 0.0454 | -0.0019 | 0.0337 |  | -0.0283 | -0.0143 | 0.0141 | 0.0426 | 0.0042 | 0.0499 | -0.0392 | 0.0541 | -0.0258 | 0.0117 | -0.0098 | 0.0418 | 0.0348 | 0.0705
Cc1c2c(nn1C)CSCc1cc(n(C)n1)CSc1cc(c3ccccc3c1)OCCCc1c(C(=O)O)n(C)c3c-2c(Cl)ccc13 [AZD5991] + C[C@@H](Nc1cc(F)cc(F)c1)c1cc(C(=O)N(C)C)cc2c(=O)cc(N3CCOCC3)oc12 [AZD8186] (first compound max 1 µM, 7x7, partner max 3 µM) | 0.975 | -0.012 | 0.0052 | -0.111 | -0.0121 | -0.0421 | -0.063 | -0.0045 | 0.0058 | 0.0185 | -0.0335 |  | -0.0519 | 0.0607 | -0.0428 | -0.0736 | 0.043 | -0.0155 | 0.008 | -0.0186
C[C@@H](Nc1cc(F)cc(F)c1)c1cc(C(=O)N(C)C)cc2c(=O)cc(N3CCOCC3)oc12 [AZD8186] + C1CN(CCC1(C(=O)N[C@@H](CCO)C2=CC=C(C=C2)Cl)N)C3=NC=NC4=C3C=CN4 [AZD5363] (first compound max 10 µM, 7x7, partner max 10 µM) | 0.284 | -0.0508 |  | -0.0078 | -0.0338 |  |  | -0.0712 | 0.0106 | 0.0092 |  | 0.0035 | -0.0597 | 0.04 | -0.0629 | -0.0661 |  | -0.0683 |  | 

From the supplement of paper PMC11061612
